Reference: patent publication US20080269240A1, “Novel Adenine Compound” (priority 2005, published 2008)

Biological target: T1, human TLR7 (Homo sapiens, UniProt Q9NYK1)
T1 construct: expressed in transfected cells; host or cells: HEK293 (hTLR7/seap-293)
T1 sequence (Q9NYK1 27-1049): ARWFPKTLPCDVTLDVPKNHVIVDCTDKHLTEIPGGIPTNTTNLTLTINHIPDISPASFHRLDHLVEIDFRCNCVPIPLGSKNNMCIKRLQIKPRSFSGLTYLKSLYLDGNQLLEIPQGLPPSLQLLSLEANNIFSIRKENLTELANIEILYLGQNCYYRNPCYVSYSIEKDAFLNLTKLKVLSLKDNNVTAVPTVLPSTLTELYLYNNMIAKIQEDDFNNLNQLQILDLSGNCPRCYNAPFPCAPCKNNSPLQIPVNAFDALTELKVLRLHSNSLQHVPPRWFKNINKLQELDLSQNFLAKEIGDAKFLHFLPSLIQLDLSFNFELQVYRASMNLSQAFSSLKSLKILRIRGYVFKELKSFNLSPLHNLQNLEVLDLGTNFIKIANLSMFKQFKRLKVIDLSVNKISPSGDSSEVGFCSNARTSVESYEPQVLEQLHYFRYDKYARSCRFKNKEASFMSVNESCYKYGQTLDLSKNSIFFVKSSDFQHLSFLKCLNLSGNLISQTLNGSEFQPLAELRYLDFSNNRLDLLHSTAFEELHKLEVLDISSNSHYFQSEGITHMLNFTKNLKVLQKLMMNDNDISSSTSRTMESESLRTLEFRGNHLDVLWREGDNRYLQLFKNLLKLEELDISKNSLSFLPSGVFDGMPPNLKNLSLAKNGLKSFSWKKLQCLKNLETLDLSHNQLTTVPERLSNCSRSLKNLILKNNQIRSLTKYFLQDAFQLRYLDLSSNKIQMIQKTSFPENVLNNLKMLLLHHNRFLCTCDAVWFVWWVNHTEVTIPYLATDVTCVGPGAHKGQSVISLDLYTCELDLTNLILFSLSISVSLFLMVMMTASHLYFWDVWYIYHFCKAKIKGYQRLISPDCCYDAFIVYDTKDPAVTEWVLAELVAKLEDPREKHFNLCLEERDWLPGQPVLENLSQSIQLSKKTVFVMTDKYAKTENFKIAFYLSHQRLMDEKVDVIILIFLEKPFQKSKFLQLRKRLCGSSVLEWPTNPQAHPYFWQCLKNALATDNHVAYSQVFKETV
Assay: Human TLR7 reporter assay (NF-kB-SEAP) in HEK293 cells
Type: cell-based
Conditions: HEK293 cells stably introduced with human TLR7 plasmid and NF-kB-SEAP reporter plasmid; cultured 20 hours with compound (1 nM-10 μM); absorbance 405 nm; read-out: Human TLR7 binding activity (EC50)
Experimental: Human TLR7 Reporter Assay
HEK293 cells in which human TLR7 or rat TLR7 plasmid and reporter plasmid (NF-kB-SEAP) are stably introduced are dispersed in DMEM broth (10% FBS, 1% NEAA, 10 ug/mL blastocidin S HCl, 100 ug/mL Zeocin), and were seeded to 96 well plate per 90 μl/well (hTLR7/seap-293: 20000 cells/well, rTLR7/seap-293:25000 cells/well).
Test compound (DMSO stock solution (2 μl) was diluted with the broth (200 μl) by 100 times) was added to the seeded cells to a 96 well plate (10 μl/well) (final concentration; 1 nM-10 μM, common ratio). After stirring by tapping side of the plate, the cells were cultured in a CO2 incubator for 20 hours. A substrate (50 μl/well) for reporter assay (substrate for SEAP, pNPP) was added to cells stimulated by test sample. Ten minutes after adding the substrate, the reaction quenching solution (4N NaOH) was added by 50 μl/well to cease enzymatic reaction. Sealing a top seal A on the plate, the absorbance was measured by a micro plate reader (405 nm).

| Compound | EC50 [nM] |
| --- | --- |
| CCCCOc1nc(N)c2[nH]c(=O)n(CCC3CCN(CCCN(C)CCOc4cccc(CC(=O)OC)c4)CC3)c2n1 [Example 12, 2-Butoxy-7,8-dihydro-9-{1-[3-([N-methyl-N {2 [3-(methoxycarbonylmethyl)phenoxy]ethyl}]amino)propyl]piperidin-4-ylethyl}-8-oxoadenine] | 579 |
| CCCCOc1nc(N)c2[nH]c(=O)n(CCCCCN3CCN(CCN(C)Cc4cccc(CC(=O)OC)c4)CC3)c2n1 [Example 20, 2-Butoxy-7,8-dihydro-9-[5-(4-{2-[N-methyl-N-(3-methoxycarbonylmethyl)benzyl]aminomethyl}piperazin-1-yl)pentyl]-8-oxoadenine] | 139 |
| COCCOc1nc(N)c2[nH]c(=O)n(CC3CCN(CC(=O)N(C)CCOc4cccc(CC(=O)OC)c4)CC3)c2n1 [Example 17, 7,8-Dihydro-2-(2-methoxyethoxy)-9-{1-[(N-(2-[3-(methoxylcarbonylmethyl)phenoxy]ethyl}-N-methyl)aminocarbonylmethyl]piperidin-4-ylmethyl}-8-oxoadenine] | 5620 |
| CCCCOc1nc(N)c2[nH]c(=O)n(CC3CCN(C(=O)CN(C)CCOc4cc(CC(=O)OC)ccc4OC)CC3)c2n1 [Example 19, 2-Butoxy-7,8-dihydro-9-{1-[(N-{2-[2-methoxy-5-(methoxylcarbonylmethyl)phenoxy]ethyl}-N-methyl)aminomethylacarbonyl]piperidin-4-ylmethyl}-8-oxoadenine] | 644 |
| CCCCOc1nc(N)c2[nH]c(=O)n(CCCCCCCN3CCN(CCOc4cccc(CC(=O)OC)c4)CC3)c2n1 [Example 23, 2-Butoxy-7,8-dihydro-9-(7-{4-[2-(3-methoxycarbonylmethylphenyloxy)ethyl]piperazin-1-yl}heptyl)-8-oxoadenine] | 74.5 |
| CCCCOc1nc(N)c2[nH]c(=O)n(CCCCN3CCC(Oc4cccc(CC(=O)OC)c4)CC3)c2n1 [Example 29] | 713 |
| CCCCOc1nc(N)c2[nH]c(=O)n(CC3CCN(CCCNCc4cccc(CC(=O)OC)c4)CC3)c2n1 [Example 2] | 1860 |
| CCCCOc1nc(N)c2[nH]c(=O)n(CCC3CCN(C(=O)CN(C)CCOc4cccc(CC(=O)OC)c4)CC3)c2n1 [Example 18, 2-Butoxy-7,8-dihydro-9-(2-{1-[(N-{2-[3-(methoxylcarbonylmethyl)phenoxy]ethyl)-N-methyl)aminocarbonylmethyl]piperidin-4-yl}ethyl)-8-oxoadenine] | 281 |
| CCCCOc1nc(N)c2[nH]c(=O)n(CCCCCN3CCN(CCOc4cccc(CC(=O)OC)c4)CC3)c2n1 [Example 22] | 198 |
| CCCCOc1nc(N)c2[nH]c(=O)n(CC3CCN(CCCN(C)Cc4cccc(CC(=O)OC)c4)CC3)c2n1 [Example 1, 2-Butoxy-7,8-dihydro-9-{[2-(3-{N-[(3-methoxycarbonylmethylphenyl-1-yl)methyl]-N-methylamino}propyl)piperidin-4-yl]methyl}-8-oxoadenine] | 1620 |
| CCCCOc1nc(N)c2[nH]c(=O)n(CCCCCCCN3CCN(CCN(C)Cc4cccc(CC(=O)OC)c4)CC3)c2n1 [Example 21, 2-Butoxy-7,8-dihydro-9-[7-(4-{2-[N-methyl-N-(3-methoxycarbonylmethyl)benzyl]aminomethyl}piperazin-1-yl)heptyl]-8-oxoadenine] | 449 |
| CCCCOc1nc(N)c2[nH]c(=O)n(CCC3CCN(CCOc4cccc(CC(=O)OC)c4)CC3)c2n1 [Example 11, 2-Butoxy-7,8-dihydro-9-(1-{2-[3-(methoxycarbonylmethyl)phenoxy]ethyl}piperidin-4-ylethyl)-8-oxoadenine] | 187 |
